Results reported in PMC5686591, “Identification and Characterization of the Major Porin of Desulfovibrio vulgaris Hildenborough” (Journal of Bacteriology, 2017).

Target: T1, DVU0799 (Nitratidesulfovibrio vulgaris, UniProt Q72DY0)
T1 construct: gene DVU_0799; native protein purified from wild-type outer membranes (octyl glucoside), untagged; monomer about 50 kDa, homotrimer; reconstituted in proteoliposomes
T1 sequence (Q72DY0 24-466): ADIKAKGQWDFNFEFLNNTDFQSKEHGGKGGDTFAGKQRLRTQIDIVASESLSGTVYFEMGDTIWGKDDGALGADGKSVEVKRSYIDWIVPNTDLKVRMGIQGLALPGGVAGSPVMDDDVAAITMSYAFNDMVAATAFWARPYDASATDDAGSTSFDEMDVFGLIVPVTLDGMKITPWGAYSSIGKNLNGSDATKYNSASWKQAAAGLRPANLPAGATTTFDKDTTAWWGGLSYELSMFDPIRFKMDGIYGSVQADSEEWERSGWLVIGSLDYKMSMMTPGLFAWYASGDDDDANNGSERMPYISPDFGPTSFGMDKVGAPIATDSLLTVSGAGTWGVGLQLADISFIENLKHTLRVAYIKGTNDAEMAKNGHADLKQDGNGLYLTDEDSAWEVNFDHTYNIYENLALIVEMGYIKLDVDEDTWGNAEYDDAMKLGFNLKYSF
Test: liposome swelling assay (OD400), reconstituted proteoliposomes
Format: biochemical
Conditions: pore permeation (passive diffusion)

Row | SMILES | relative permeability (relative to L-arabinose, 9 mM solute, 4 mM sodium NAD, 1 mM imidazole-NAD, pH 6.0) | relative permeability (scaling reference of the assay, about 20 mM solute)
1 | O=C(O)[C@H](O)[C@@H](O)[C@H](O)[C@H](O)CO [D-gluconate] | purified DVU0799 were also surveyed for their permeability to two sugar acids, D-gluconate | 
2 | OC1OC[C@H](O)[C@H](O)[C@H]1O (stereo partly drawn) [L-arabinose] |  | the permeability profile begins with that for L-arabinose at the upper limit
